Measured values taken from the supplement of paper PMC11451515.

Test system: P12-Ichikawa
Experiment: cell viability relative to DMSO control; higher = less cytotoxic
Details: 48 h
Method in brief: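 Viability is a per-plate percentage relative to DMSO wells, with cell-free wells as background. CellTiter-Glo One luminescence was read after 48 h at 37°C on 1536-well plates (5 μl) of NOMO1 or SEM (500 cells/well) or P12-Ichikawa (1000 cells/well) leukemia cells. The cells had been adapted for at least four passages in each medium and pin-dosed with library compounds in DMSO from 47 μM to 0.79 nM in 11 threefold steps.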

[1] = HPLM + 10% dialyzed FBS, 0.000781 µM
[2] = HPLM + 10% dialyzed FBS, 0.00234 µM
[3] = HPLM + 10% dialyzed FBS, 0.00702 µM
[4] = HPLM + 10% dialyzed FBS, 0.0211 µM
[5] = HPLM + 10% dialyzed FBS, 0.0632 µM
[6] = HPLM + 10% dialyzed FBS, 0.19 µM
[7] = HPLM + 10% dialyzed FBS, 0.569 µM
[8] = HPLM + 10% dialyzed FBS, 1.71 µM
[9] = HPLM + 10% dialyzed FBS, 5.12 µM
[10] = HPLM + 10% dialyzed FBS, 15.4 µM
[11] = HPLM + 10% dialyzed FBS, 46.1 µM
[12] = RPMI 5 mM glucose + 10% FBS, 0.000781 µM
[13] = RPMI 5 mM glucose + 10% FBS, 0.00234 µM
[14] = RPMI 5 mM glucose + 10% FBS, 0.00702 µM
[15] = RPMI 5 mM glucose + 10% FBS, 0.0211 µM
[16] = RPMI 5 mM glucose + 10% FBS, 0.0632 µM
[17] = RPMI 5 mM glucose + 10% FBS, 0.19 µM
[18] = RPMI 5 mM glucose + 10% FBS, 0.569 µM
[19] = RPMI 5 mM glucose + 10% FBS, 1.71 µM
[20] = RPMI 5 mM glucose + 10% FBS, 5.12 µM
[21] = RPMI 5 mM glucose + 10% FBS, 15.4 µM
[22] = RPMI 5 mM glucose + 10% FBS, 46.1 µM
[23] = RPMI 5 mM glucose + 10% dialyzed FBS, 0.000781 µM
[24] = RPMI 5 mM glucose + 10% dialyzed FBS, 0.00234 µM
[25] = RPMI 5 mM glucose + 10% dialyzed FBS, 0.00702 µM
[26] = RPMI 5 mM glucose + 10% dialyzed FBS, 0.0211 µM
[27] = RPMI 5 mM glucose + 10% dialyzed FBS, 0.0632 µM
[28] = RPMI 5 mM glucose + 10% dialyzed FBS, 0.19 µM
[29] = RPMI 5 mM glucose + 10% dialyzed FBS, 0.569 µM
[30] = RPMI 5 mM glucose + 10% dialyzed FBS, 1.71 µM
[31] = RPMI 5 mM glucose + 10% dialyzed FBS, 5.12 µM
[32] = RPMI 5 mM glucose + 10% dialyzed FBS, 15.4 µM
[33] = RPMI 5 mM glucose + 10% dialyzed FBS, 46.1 µM

Compound | cell viability [1] | cell viability [2] | cell viability [3] | cell viability [4] | cell viability [5] | cell viability [6] | cell viability [7] | cell viability [8] | cell viability [9] | cell viability [10] | cell viability [11] | cell viability [12] | cell viability [13] | cell viability [14] | cell viability [15] | cell viability [16] | cell viability [17] | cell viability [18] | cell viability [19] | cell viability [20] | cell viability [21] | cell viability [22] | cell viability [23] | cell viability [24] | cell viability [25] | cell viability [26] | cell viability [27] | cell viability [28] | cell viability [29] | cell viability [30] | cell viability [31] | cell viability [32] | cell viability [33]
CCCn1c(=O)c2[nH]c(-c3cnn(Cc4cccc(C(F)(F)F)c4)c3)nc2n(CC)c1=O | 108% | 106% | 122% | 112% | 112% | 115% | 109% | 106% | 88.1% | 83.3% | 84.7% | 115% | 124% | 123% | 137% | 125% | 118% | 85.6% | 73% | 65.1% | 74.6% | 72.9% | 114% | 109% | 105% | 108% | 107% | 109% | 109% | 103% | 81.4% | 73.6% | 68.8%
CC(=O)SCC(Cc1ccccc1)C(=O)NCC(=O)OCc1ccccc1 (stereo unspecified) | 93.4% | 92.2% | 103% | 104% | 103% | 102% | 105% | 103% | 101% | 66.9% | 8.75% | 105% | 93.6% | 106% | 102% | 99.9% | 98.2% | 101% | 100% | 98.6% | 54% | 59.3% | 85.3% | 91.2% | 96.2% | 94.3% | 104% | 95.5% | 101% | 103% | 90.1% | 34.7% | 50.3%
CC1=C(/C=C/C(C)=C/C=C/C(C)=C/C(=O)Nc2ccc(O)cc2)C(C)(C)CCC1 | 85.1% | 83.4% | 85.5% | 96.1% | 90.8% | 91.8% | 93.8% | 68.5% | 23.7% | 8.54% | 3.66% | 82% | 88.8% | 83% | 91.8% | 86.3% | 81.9% | 87% | 57.9% | 28.5% | 7.98% | 1.15% | 83.3% | 85.9% | 84% | 84.8% | 83.4% | 81.5% | 83.3% | 23.8% | 6.39% | 4.24% | 1.74%
CC(Oc1ccc(O)cc1)(P(=O)(O)O)P(=O)(O)O | 102% | 101% | 94.9% | 100% | 101% | 99.2% | 90.3% | 94.9% | 85.3% | 67.8% | 46.7% | 92.5% | 97.8% | 95% | 93.7% | 100% | 98.2% | 82.2% | 87.2% | 81.5% | 42.8% | 33.6% | 97.1% | 97.5% | 88.6% | 98.4% | 107% | 101% | 90.7% | 93.1% | 87.6% | 47.2% | 34.6%
CCOc1cc2c(c(F)c1OCC)C(=N)N(CC(=O)c1cc(N3CCOCC3)c(OC)c(C(C)(C)C)c1)C2 | 104% | 105% | 107% | 114% | 112% | 111% | 115% | 115% | 116% | 118% | 100% | 110% | 124% | 128% | 118% | 126% | 132% | 128% | 127% | 124% | 131% | 108% | 108% | 114% | 111% | 118% | 125% | 117% | 119% | 117% | 113% | 120% | 105%
CC1(C)CC(=O)c2c(C(F)(F)F)nn(-c3ccc(C(N)=O)c(NC4CCC(OC(=O)CN)CC4)c3)c2C1 (stereo unspecified) | 107% | 86.9% | 96.8% | 96.5% | 102% | 88.6% | 62.2% | 42.1% | 36.4% | 36.3% | 37.9% | 83.8% | 93.7% | 91.7% | 95.4% | 99.1% | 66.3% | 35.2% | 33.2% | 29.2% | 28.8% | 27.3% | 92.9% | 92.9% | 93% | 91.9% | 89.6% | 82.4% | 41% | 32.3% | 33.3% | 28.8% | 28.5%
CN(C)C(=O)COC(=O)Cc1ccc(OC(=O)c2ccc(NC(=N)N)cc2)cc1 | – | 122% | 126% | 134% | 129% | 135% | 134% | 126% | 107% | 98.4% | 70.5% | – | – | – | – | – | – | – | – | – | – | – | – | – | – | – | – | – | – | – | – | – | –
CN1[C@@H]2CC(O)C[C@H]1[C@@H]1O[C@@H]12 (stereo partly specified) | 122% | 121% | 124% | 105% | 119% | 115% | 119% | 120% | 114% | 119% | 6.79% | 122% | 113% | 123% | 119% | 135% | 121% | 119% | 125% | 107% | 104% | 18.3% | 118% | 119% | 127% | 112% | 125% | 120% | 120% | 113% | 106% | 120% | 4.64%
